# Laboratory results from patent US20060258581A1, “Methods and composition for derepressions of IAP-inhibited caspase” (priority 2001, published 2006).
# Read-outs that look alike come from different tables or passages of the source. Where a SMILES comes first, the peptide text is derived from it. Where no end group is shown, it is not given here. [ ]: non-standard residue; d: D form. The star is where a group is joined. Phe(4-Cl) = N[C@@H](Cc1ccc(Cl)cc1)C(=O)O; 2Nal = N[C@@H](Cc1ccc2ccccc2c1)C(=O)O; d2Nal = N[C@H](Cc1ccc2ccccc2c1)C(=O)O; Fmoc = O=C(OCC1c2ccccc2-c2ccccc21)*; 2Thi = N[C@@H](Cc1cccs1)C(=O)O
# What was measured:
# [1] = system: NCI panel of 60 tumor cell lines; assay: NCI panel of 60 tumor cell lines, 48 hours, protein-based colorimetric assay; design: species or system human
# Experimental: Selected polyphenylurea compounds were tested on the National Cancer Institute (NCI) panel of 60 tumor cell lines (see FIG. 28a and FIG. 29).
# [2] = system: ALVA31 prostate cancer cells; assay: ALVA31 prostate cancer cell viability (XTT dye-reduction, trypan blue); type: cell-based; details: 24 hrs; for cell viability, compound alone: peptides 40 μM, VP-16 100 μM; for tumor cell killing, combination with VP-16: peptide 40 μM with VP-16 100 μM
# Experimental: The in vivo effects of TPI 792-33 or TPI 792-35, either individually or in combination with the cytotoxic anticancer drug VP-16 (etoposide), on derepression of XIAP-inhibited caspase and viability of ALVA31 cells was determined as follows. ALVA31 prostate cancer cells were seeded onto 96 well plates (10^4 cells/well) in 100 μL RPMI containing 2.5% fetal bovine serum (FBS). […] After another 24 hrs-incubation, cell viability was measured by the XTT dye-reduction assay (Roche, Molecular Biochemicals; Indianapolis, Ind.) and trypan blue dye exclusion assay.
# full length XIAP = full length XIAP (Homo sapiens, UniProt P98170); assay: Potency of IAP antagonists in vitro (Table VIII; caspase derepression / SMAC competition with full length XIAP); details: for Relative Potency (fold versus SMAC peptide): SMAC AVPI tetrapeptide = 1.0
# Chain of full length XIAP (P98170 whole entry): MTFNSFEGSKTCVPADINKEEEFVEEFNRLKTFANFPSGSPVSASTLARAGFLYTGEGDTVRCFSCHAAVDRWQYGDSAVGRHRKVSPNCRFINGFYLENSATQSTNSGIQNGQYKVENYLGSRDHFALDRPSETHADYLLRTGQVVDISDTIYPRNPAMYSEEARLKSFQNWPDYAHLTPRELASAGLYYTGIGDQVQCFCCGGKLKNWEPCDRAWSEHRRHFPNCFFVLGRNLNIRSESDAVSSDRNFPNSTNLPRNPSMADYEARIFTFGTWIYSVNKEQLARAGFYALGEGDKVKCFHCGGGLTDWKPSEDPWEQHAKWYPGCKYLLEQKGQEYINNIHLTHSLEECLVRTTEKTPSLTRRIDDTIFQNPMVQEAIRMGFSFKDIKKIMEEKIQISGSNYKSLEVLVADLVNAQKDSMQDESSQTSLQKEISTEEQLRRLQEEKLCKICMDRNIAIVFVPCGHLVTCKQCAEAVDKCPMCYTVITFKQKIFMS
# Jurkat leukemia cells = assay: Jurkat leukemia cell death, Annexin V/propidium iodide flow cytometry; type: cell-based
# Experimental: The following assay was used to test the ability of individual compounds from the TPI 1396 and TPI 1391 libraries to induce apoptosis of cultured tumor cell lines. Each of the compounds listed in Table IX was individually added to Jurkat leukemia cells (6.25×10^5 cells/mL) in RPMI containing 2.5% FBS at various concentrations for 20 hours. After incubation, cells were washed and stained with FITC-conjugated Annexin V antibody and propidium iodide (Biovision; Mountain View, Calif.). Cells were incubated for 20 minutes at room temperature in the dark and fluorescence was measured by flow cytometry (FACScan, Immunocytometry system; Becton-Dickinson; San Jose, Calif.). Cells staining positive for Annexin V were deemed non-viable.
# The TPI I396-34 and TPI 1391-28 compounds were further tested as set forth below.
# XIAP-inhibited caspase-3 = molecular target: T1, XIAP-inhibited caspase-3 (Homo sapiens, UniProt P98170); assay: IAP derepression assay: Ac-DEVD-AFC hydrolysis by caspase-3 in the presence of GST-XIAP; type: biochemical; details: for Activity* (relative caspase-3 activity: Vmax in the presence of compound / Vmax of controls having caspase-3 and XIAP): XIAP derepression assay; for activity in the caspase derepression assay using full length XIAP: in words
# T1 construct: in a caspase derepression assay using full length XIAP; made in house; host or cells: bacteria
# T1 sequence (P98170 whole entry): as above
# Experimental: The ratio of Vmax for hydrolysis of Ac-DEVD-AFC in the presence and absence of the candidate mixture was calculated and used to identify those that contain an agent that derepresses an IAP-inhibited caspase.
# Each mixture was aliquoted in a 25 microliter volume and in duplicate to a well of a 96 well microtiter plate. […] Fluorescence of liberated AFC was immediately detected from each well for 30 minutes at 30 second intervals. The Vmax for hydrolysis of AC-DEVD-AFC from each well was measured using the softmax software package.
# XIAP = XIAP (Homo sapiens, UniProt P98170); assay: SMAC binding/competition assay: biotinylated SMAC 7-mer on NeutrAvidin plates, GST-XIAP detected by anti-GST; details: in words
# Chain of XIAP (P98170 whole entry): as above
# Experimental: Peptide compounds containing unnatural amino acids in the 792 series, 792-33 and 792-35 (see FIG. 12 and 20 and Example XI), and an active compound in the TPI 1332 series, TPI 1332-69, were tested for binding activity in the SMAC binding assay as described above in Example X. For this assay, biotinylated SMAC 7-mer peptide (50 ng) was bound to 96 well plates coated with NeutrAvidin (Pierce, Rockford, Ill.) at 1 mg/ml in 100 μl per well of 50 mM HEPES pH 7.4, 100 mM NaCl 1 mM EDTA, 10% sucrose, 0.1% CHAPS, 10 mM DTT.
molecule,measurement,setting,value
"COc1cc([C@@H]2c3cc4c(cc3[C@@H](O[C@@H]3O[C@@H]5CO[C@@H](C)O[C@H]5[C@H](O)[C@H]3O)[C@H]3COC(=O)[C@H]23)OCO4)cc(OC)c1O [VP-16, etoposide, reference compound]",average (mean) LD50 for the 60 cell lines,[1],200 ± 2.5 µM
same,"cell viability, compound alone",[2],essentially no effect
O=C1C(=O)N([C@H](CNCc2ccccc2)Cc2ccc3ccccc3c2)C[C@H](Cc2ccc3ccccc3c2)N1CCc1cccc(C(F)(F)F)c1 [TPI 1391-34],Relative Potency (fold versus SMAC peptide),full length XIAP,3.3
same,EC50,full length XIAP; amount of compound necessary to restore caspase-3 activity to 50% of Vmax,39.4 µM
CCCC[C@@H](CNCc1ccccc1)N1C[C@@H](CC(C)C)N(CC(C)c2ccc(CC(C)C)cc2)C(=O)C1=O (stereo partly shown) [TPI 1391-1],% nonviable cells,Jurkat leukemia cells; 1 µM,18%
same,% nonviable cells,Jurkat leukemia cells; 10 µM,20%
same,% nonviable cells,Jurkat leukemia cells; 25 µM,69%
same,% nonviable cells,Jurkat leukemia cells; 50 µM,91%
(D-Nal)-(Lys-εFmoc)-(L-pClPhe)-(Lys-εFmoc) ([d2Nal]K(Fmoc)[Phe(4-Cl)]K(Fmoc)) [TPI 792-3],LC (lowest concentration with a ratio of 2 or higher in the derepression assay),"XIAP-inhibited caspase-3; tested at 0.4, 2, 10 and 50",2 µg/mL
(D-Nal)-(L-Nal)-(L-pClPhe)-(Lys-εFmoc) ([d2Nal][2Nal][Phe(4-Cl)]K(Fmoc)) [TPI 792-15],LC (lowest concentration with a ratio of 2 or higher in the derepression assay),"XIAP-inhibited caspase-3; tested at 0.4, 2, 10 and 50",2 µg/mL
O=C(NC[C@@H](CC1CCCCC1)N(C[C@@H]1CCCN1CCC12CC3CC(CC(C3)C1)C2)C(=O)Nc1ccccc1)Nc1ccccc1 [TPI 1396-35],Activity* (relative caspase-3 activity: Vmax in the presence of compound / Vmax of controls having caspase-3 and XIAP),XIAP-inhibited caspase-3,2.5
"N[C@@H](Cc1cccs1)C(=O)N[C@@H](Cc1ccc2ccccc2c1)C(=O)N[C@@H](Cc1ccc(Cl)cc1)C(=O)N[C@@H](CCCCNC(=O)OCC1c2ccccc2-c2ccccc21)C(=O)O [TPI 792-33, L-3-(2-thienyl)-alanyl-L-(2-naphthyl)-alanyl-L-p-chloro-phenylalanyl-L-(e-fluorenylmethyloxycarbonyl)-lysine] (H-[2Thi][2Nal][Phe(4-Cl)]K(Fmoc)-OH)",LC (lowest concentration with a ratio of 2 or higher in the derepression assay),XIAP-inhibited caspase-3,0.4 micrograms per milliliter
same,activity in the caspase derepression assay using full length XIAP,XIAP-inhibited caspase-3,activity
same,LC (lowest concentration with a ratio of 2 or higher in the derepression assay),"XIAP-inhibited caspase-3; tested at 0.4, 2, 10 and 50",0.4 µg/mL
same,competition with XIAP binding to the SMAC peptide (SMAC competition assay),XIAP,activity
same,"cell viability, compound alone",[2],reduced viability of these prostate cancer cells by nearly half
same,"tumor cell killing, combination with VP-16",[2],more potent tumor cell killing compared to VP-16 alone
same,Relative Potency (fold versus SMAC peptide),full length XIAP,5.2
"N[C@@H](Cc1cccs1)C(=O)N[C@@H](Cc1ccc2ccccc2c1)C(=O)N[C@H](CCCCNC(=O)OCC1c2ccccc2-c2ccccc21)C(=O)N[C@@H](CCCCNC(=O)OCC1c2ccccc2-c2ccccc21)C(=O)O [TPI 792-35, L-3-(2-thienyl)-alanyl, L-(2-naphthyl)-alanyl-D-(e-fluorenylmethyloxycarbonyl)-lysyl-L-(e-fluorenylmethyloxycarbonyl)-lysine] (H-[2Thi][2Nal][dK](Fmoc)K(Fmoc)-OH)",activity in the caspase derepression assay using full length XIAP,XIAP-inhibited caspase-3,activity
same,LC (lowest concentration with a ratio of 2 or higher in the derepression assay),"XIAP-inhibited caspase-3; tested at 0.4, 2, 10 and 50",2 µg/mL
same,competition with XIAP binding to the SMAC peptide (SMAC competition assay),XIAP,activity
same,"cell viability, compound alone",[2],reduced viability of these prostate cancer cells by nearly half
same,"tumor cell killing, combination with VP-16",[2],more potent tumor cell killing compared to VP-16 alone
same,Relative Potency (fold versus SMAC peptide),full length XIAP,2.5
CCCC[C@@H](CNCc1ccccc1)N1C[C@@H](CC(C)C)N(CCc2cccc(C(F)(F)F)c2)C(=O)C1=O [TPI 1391-4],% nonviable cells,Jurkat leukemia cells; 1 µM,20%
same,% nonviable cells,Jurkat leukemia cells; 10 µM,48%
same,% nonviable cells,Jurkat leukemia cells; 25 µM,90%
same,% nonviable cells,Jurkat leukemia cells; 50 µM,86%
(L-Ala)-(D-Trp)-(L-Trp)-(L-ThiAla) (A[dW]W[2Thi]) [TPI 1332-47],reversing XIAP-mediated suppression of caspase 3,"XIAP-inhibited caspase-3; 50 μg/ml, full length XIAP",Active
COc1ccc(CCN(C(=O)Nc2ccccc2)[C@H](Cc2ccccc2)CN(C(=O)Nc2ccccc2)[C@@H](CNC(=O)Nc2ccccc2)CC2CCCCC2)cc1 [TPI 1396-31],Activity* (relative caspase-3 activity: Vmax in the presence of compound / Vmax of controls having caspase-3 and XIAP),XIAP-inhibited caspase-3,1.3
CCCC[C@@H](CNCc1ccccc1)N1C[C@@H](CC(C)C)N(CC2CCC(C(C)(C)C)CC2)C(=O)C1=O (stereo partly shown) [TPI 1391-5],% nonviable cells,Jurkat leukemia cells; 1 µM,17%
same,% nonviable cells,Jurkat leukemia cells; 10 µM,36%
same,% nonviable cells,Jurkat leukemia cells; 25 µM,88%
same,% nonviable cells,Jurkat leukemia cells; 50 µM,88%
